According to US4649156A, “6-nitroprostaglandin derivatives” (Teijin Limited, priority 1982, dated 1987):
In brackets after ≈: the same amount, converted by molar mass. One block for each compound: values may come before it.

Key:
[1] = system: blood pressure and heart beat rate of rats; experiment: Measurement of the hypotensive activity (blood pressure and heart beat rate, i.v., anesthetized rats); assay type: in vivo, rat (male wister rats); conditions: Rattus norvegicus, iv, urethane/α-chloralose anesthesia; for ED10: read-out: H-ED10 (dosage which caused a 10% increase of the heart rate); for ED20: read-out: P-ED20 (dosage which caused a 20% lowering of the mean blood pressure)
Protocol: Measurement of the Hypotensive Activity
The actions of the 6-nitroprostaglandin E1 derivatives of the invention on the blood pressure and heart beat rate of rats were examined by intravenous injection under anesthesia.
Male wister rats weighing about 250 g were used. Urethane (500 mg/kg) and α-chloralose (100 mg/kg) were intraperitoneally administered to the rats. The rats were anesthetized and fixed in place.
Each of the test compounds was dissolved in a small amount of ethanol and diluted with physiological saline to adjust the final ethanol concentration to not more than 5%. The solution was intravenously injected into the rats through a catheter inserted into the femoral vein.
The blood pressure of the rats were measured by a pressure transducer through a catheter inserted into the carotid artery of the rats. The heart beat rate was determined from the blood pressure pulse.
The action of the test compound on the blood pressure was expressed as the dosage (p-EDz20, μg/kg) of the test compound which caused a 20% lowering of the mean blood pressure before administration of the compound. The action of the test compound on the heart rate was expressed as the dosage (H-ED10, μg/kg) of the test compound which caused a 10% increase of the heart rate from the heart beat rate before administration of the test compound.

[2] = system: platelet aggregation; experiment: In vitro inhibitory activity of platelet aggregation (ADP-induced, platelet-rich plasma); assay type: cell-based, rabbit (Japanese domestic white male rabbits); conditions: Oryctolagus cuniculus, rabbit PRP, 10 μM (final) ADP, pre-incubated at 37° C. for 2 minutes, read-out: IC50 (minimum concentration of the drug which inhibited more than 50% of platelet aggregation)
Protocol: The in vitro platelet aggregation imhibiting activity of the compounds of the invention were examined by using rabbits. Blood was withdrawn from the ear vein of Japanese domestic white male rabbits weighing 2.5 to 3.5 kg. A mixture of a 3.8% trisodium citrate solution and the blood in a ratio of 1:9 was centrifuged at a speed of 1000 rpm for 10 minutes. The upper layer was separated as platelet-rich plasma (PRP). The lower layer was further centrifuged at a speed of 28000 rpm for 10 minutes. The upper layer was separated as platelet-poor plasma (PPP). The number of platelets was adjusted to 6×10^5 /μl to 7×10^5 […] by diluting the PRP with PPP. 25 microliters of the test compounds prepared as shown below was added in an amount of 25 to 250 microliters of PRP after the adjustment, and the mixture was pre-incubated at 37° C. for 2 minutes, and then 10 μM (final) of ADP was added. By using an aggregometer, changes in transmission were recorded.
The drug was dissolved in ethanol to a concentration of 10 mg/ml, and successively diluted with phosphate buffer (pH 7.4) prior to use.
The rate of inhibition of platelet aggregation was determined from the following equation. [formula] To : the transmittance of the system containing the phosphate buffer, T: The transmittance of the system to which the test drug was added. […]

[3] = system: indomethacin ulcer; experiment: Measurement of inhibitory activity on indomethacin ulcer; assay type: in vivo, rat (wistar-strain male rats); conditions: indomethacin 20 mg/kg oral, n=8
Protocol: Seven week-oil wistar-strain male rats (body weight 200 to 220 g) were fasted for 24 hours but water was provided freely, and then used in the following experiment.
Each of the test compounds suspended in phosphate Buffers (pH 7.4) was orally administered to the rats, and 30 minutes later, indomethacin was orally administered in a dose of 20 mg/kg. Six hours later, the animals were sacrificed. The abdomen was cut open, and the stomach was removed. 1% Even's blue was injected in an amount of 0.5 ml/rat into the rats through the tail vein under ether anesthesia 10 minutes before sacrificing.
12 ml of a 1% formalin was injected into the stomach and the stomach was further dipped in 1% formaline for about 10 minutes for the fixation. The stomach was cut open on the side of the greater curvature, and spread on a glass plate. The lengths of ulcers generated in the glandular stomach were measured by using a solid microscope. The sum of the lengths of the ulcers for each nimal was used as the ulcer index. The ulcer inhibiting ratio of the test compound was calculated in accordance with the following equation. [formula]
The control group was given phosphate buffer saline (pH 7.4) indomethacin alone.

IC50 [2]: 4.5 µg/mL (≈ 10.9 µM)
Compound: CCCCC[C@H](O)/C=C/[C@H]1[C@H](O)CC(=O)[C@@H]1CC(CCCCC(=O)OC)[N+](=O)[O-] (stereo partly drawn) [6-nitroprostaglandin E1 methyl ester]
ED10 [1]: > 0.01 mg/kg
ED20 [1]: 0.01 mg/kg

IC50 [2]: 0.017 µg/mL (≈ 0.0385 µM)
Compound: CCCC[C@H](C)C[C@H](O)/C=C/[C@H]1[C@H](O)CC(=O)[C@@H]1CC(CCCCC(=O)OC)[N+](=O)[O-] (stereo partly drawn) [17(S),20-dimethyl-6-nitroprostaglandin E1 methyl ester]
ED10 [1]: > 0.01 mg/kg
ED20 [1]: 0.0004 mg/kg
Inhibition (ulcer inhibiting ratio) ([3]; 3 μg/kg oral): 12.6%
Ulcer index ([3]; 3 μg/kg oral): 12.5 ± 3.2 mm
Inhibition (ulcer inhibiting ratio) ([3]; 10 μg/kg oral): 51.0%
Ulcer index ([3]; 10 μg/kg oral): 7.0 ± 1.8 mm
Inhibition (ulcer inhibiting ratio) ([3]; 30 μg/kg oral): 80.4%
Ulcer index ([3]; 30 μg/kg oral, **P < 0.01): 2.8 ± 1.2 mm
